Experimental data reported in ChEMBL document CHEMBL2169792, “Synthesis of new 4-thiazolidinone-, pyrazoline-, and isatin-based conjugates with promising antitumor activity” (J Med Chem, 2012).
Activity calls are given as the source filed them. The calls are words filed in the database; no cut-off is given here.

Legend:
[1] = Cytotoxicity against human non-small cell lung cancer cells after 48 hrs by SRB assay; assay type: functional; conditions: Cancer cell lines; for CC50: read-out: LC50 (the source's name)
[2] = Cytotoxicity against human prostate cancer cells after 48 hrs by SRB assay; assay type: functional; conditions: Cancer cell lines
[3] = Cytotoxicity against human breast cancer cells after 48 hrs by SRB assay; assay type: functional; conditions: Cancer cell lines
[4] = Cytotoxicity against human renal cancer cells after 48 hrs by SRB assay; assay type: functional; conditions: Cancer cell lines
[5] = Cytotoxicity against human melanoma cells after 48 hrs by SRB assay; assay type: functional; conditions: Melanoma cell; for CC50: read-out: LC50 (the source's name)
[6] = Cytotoxicity against human ovarian cancer cells after 48 hrs by SRB assay; assay type: functional; conditions: Cancer cell lines
[7] = Cytotoxicity against human CNS cancer cells after 48 hrs by SRB assay; assay type: functional; conditions: Cancer cell lines
[8] = Cytotoxicity against human colon cancer cells after 48 hrs by SRB assay; assay type: functional; conditions: Cancer cell lines
[9] = Cytotoxicity against human leukemia cells after 48 hrs by SRB assay; assay type: functional; conditions: Leukemia cell; for CC50: read-out: LC50 (the source's name)
SK-MEL-5 = assay: Cytotoxicity against human SK-MEL-5 cells assessed as cell growth at 10 uM after 48 hrs by SRB assay; assay type: functional; conditions: SK-MEL-5, 48 h, read-out: Activity
CCRF-CEM = assay: Cytotoxicity against human CCRF-CEM cells assessed as cell growth at 10 uM after 48 hrs by SRB assay; assay type: functional; conditions: read-out: Activity
[10] = Toxicity in mouse; assay type: organism-based; conditions: in vivo
U-251 = assay: Cytotoxicity against human U251 cells assessed as cell growth at 10 uM after 48 hrs by SRB assay; assay type: functional; conditions: U-251, 48 h, read-out: Activity
Mus musculus = assay: Antitumor activity in ip dosed athymic nude mouse hollow fiber model assessed as reduction of viable cell mass; assay type: functional, organism-based

Row | Compound | GI50 [1] | TGI [1] | CC50 [1] | GI50 [2] | TGI [2] | GI50 [3] | LC50 (concentration causing 50% net cell kill) [3] | TGI [3] | GI50 [4] | LC50 [4] | TGI [4] | GI50 [5] | TGI [5] | CC50 [5] | GI50 [6] | LC50 (concentration causing 50% net cell kill) [6] | TGI [6] | GI50 [7] | LC50 (concentration giving 50% net cell kill) [7] | TGI [7] | further results
1 | COc1ccc(C2=NN(C3=NC(=O)/C(=C4\C(=O)Nc5ccc(Br)cc54)S3)C(c3ccc(Cl)cc3)C2)cc1 (stereo not given) | 0.12 µM | 0.34 µM | 12.4 µM | 0.18 µM | 1.01 µM | 0.14 µM | 19.2 µM | 0.4 µM | 0.14 µM | 4 µM | 0.37 µM | 0.16 µM | 0.34 µM | 0.99 µM | 0.19 µM | 29.8 µM | 14.7 µM | 0.12 µM | 15.7 µM | 1.48 µM | LC50 [2]: 100 µM; GI50 [8]: 0.13 µM; LC50 (concentration lethal to 50% of cells) [8]: 16.1 µM; TGI [8]: 7.44 µM; GI50 [9]: 0.19 µM; TGI [9]: 14 µM; CC50 [9]: 100 µM; growth at 10 µM (SK-MEL-5): -56.4%
2 | O=C1N=C(N2N=C(c3ccccc3)CC2c2ccc(Cl)cc2)S/C1=C1/C(=O)Nc2ccccc21 (stereo not given) | 0.23 µM | 6.29 µM | 30 µM | 0.25 µM | 0.85 µM | 0.32 µM | 39.4 µM | 0.91 µM | 0.27 µM | 22.1 µM | 0.85 µM | 0.28 µM | 0.54 µM | 1 µM | 0.23 µM | 26.7 µM | 0.65 µM | 0.19 µM | 2.07 µM | 0.5 µM | GI50 [8]: 0.19 µM; LC50 (concentration lethal to 50% of cells) [8]: 0.81 µM; TGI [8]: 0.39 µM; GI50 [9]: 0.37 µM; TGI [9]: 70.8 µM; CC50 [9]: 100 µM; growth at 10 µM (SK-MEL-5): -56.9%
3 | COc1ccc(-c2cc(-c3ccc(Cl)cc3)n(C3C(=O)Nc4ccc(Cl)cc43)n2)cc1 (stereo not given) | 4.37 µM | 23.2 µM | 59.8 µM | 6.49 µM | 20.3 µM | 6.29 µM | 47.6 µM | 17.8 µM | 3.75 µM | 42.4 µM | 13.2 µM | 9.4 µM | 46.7 µM | 76.4 µM | 3.68 µM | 52.3 µM | 14.7 µM | 3.94 µM | 42.2 µM | 14.4 µM | LC50 [2]: 62.4 µM; GI50 [8]: 6.15 µM; LC50 (concentration lethal to 50% of cells) [8]: 69.4 µM; TGI [8]: 28.6 µM; GI50 [9]: 27.9 µM; TGI [9]: 79.2 µM; CC50 [9]: 100 µM; growth at 10 µM (CCRF-CEM): 50.8%
4 | COc1ccc(-c2cc(-c3ccc(Cl)cc3)n(C3C(=O)Nc4ccccc43)n2)cc1 (stereo not given) |  |  |  |  |  |  |  |  |  |  |  |  |  |  |  |  |  |  |  |  | growth at 10 µM (CCRF-CEM): 75.6%
5 | CN(C)c1ccc(C2CC(c3ccccc3)=NN2C2=NC(=O)/C(=C3\C(=O)Nc4ccc(Cl)cc43)S2)cc1 (stereo not given) | 0.21 µM | 0.51 µM | 37.9 µM | 0.25 µM | 0.69 µM | 0.22 µM | 2.32 µM | 0.53 µM | 0.19 µM | 15.3 µM | 0.43 µM | 0.26 µM | 0.57 µM | 2.16 µM | 0.24 µM | 48.8 µM | 0.62 µM | 0.19 µM | 1.63 µM | 0.43 µM | LC50 [2]: 12.8 µM; GI50 [8]: 0.19 µM; LC50 (concentration lethal to 50% of cells) [8]: 16.5 µM; TGI [8]: 0.41 µM; GI50 [9]: 0.34 µM; TGI [9]: 3.11 µM; CC50 [9]: 100 µM; growth at 10 µM (SK-MEL-5): -52.9%
6 | O=C1N=C(N2N=C(c3ccc4ccccc4c3)CC2c2ccc(Cl)cc2)S/C1=C1/C(=O)Nc2ccccc21 (stereo not given) | 0.46 µM | 20.9 µM | 100 µM | 0.4 µM | 50.7 µM | 0.74 µM | 91.7 µM | 38.3 µM | 0.4 µM | 75.5 µM | 42.1 µM | 0.35 µM | 24.7 µM | 83 µM | 15.4 µM | 100 µM | 56.1 µM | 8.8 µM | 75.9 µM | 27.3 µM | MTD [10]: > 400 mg/kg; LC50 [2]: 100 µM; GI50 [8]: 0.53 µM; LC50 (concentration lethal to 50% of cells) [8]: 83.8 µM; TGI [8]: 70.3 µM; GI50 [9]: 19.1 µM; TGI [9]: 71.6 µM; CC50 [9]: 93.1 µM; growth at 10 µM (U-251): -25.1%; Activity (Mus musculus): inactive
7 | O=C(O)CN1C(=O)C(n2nc(-c3ccccc3)cc2-c2ccc(Cl)cc2)c2ccccc21 (stereo not given) |  |  |  |  |  |  |  |  |  |  |  |  |  |  |  |  |  |  |  |  | growth at 10 µM (CCRF-CEM): 97.7%
8 | O=C(O)CN1C(=O)C(n2nc(-c3ccc4ccccc4c3)cc2-c2ccc(Cl)cc2)c2ccccc21 (stereo not given) |  |  |  |  |  |  |  |  |  |  |  |  |  |  |  |  |  |  |  |  | growth at 10 µM (CCRF-CEM): 103%
9 | O=C1N=C(N2N=C(c3ccccc3)CC2c2ccccc2O)S/C1=C1/C(=O)Nc2ccc(Br)cc21 (stereo not given) | 0.24 µM | 0.67 µM | 7.24 µM | 0.29 µM | 0.93 µM | 0.26 µM | 3.59 µM | 0.8 µM | 0.23 µM | 2.55 µM | 0.63 µM | 0.23 µM | 0.66 µM | 2.43 µM | 0.28 µM | 19 µM | 0.94 µM | 0.24 µM | 4.12 µM | 0.72 µM | LC50 [2]: 7.68 µM; GI50 [8]: 0.21 µM; LC50 (concentration lethal to 50% of cells) [8]: 1.67 µM; TGI [8]: 0.46 µM; GI50 [9]: 0.27 µM; TGI [9]: 1.05 µM; CC50 [9]: 9.49 µM; growth at 10 µM (SK-MEL-5): -53.9%
10 | COc1ccc(-c2cc(-c3ccc(Cl)cc3)n(C3C(=O)Nc4ccc(Br)cc43)n2)cc1 (stereo not given) | 7.53 µM | 30 µM | 58.6 µM | 7.65 µM | 22.1 µM | 8.1 µM | 65.8 µM | 24.6 µM | 9.2 µM | 62.1 µM | 32.3 µM | 13.2 µM | 49.3 µM | 81.1 µM | 9.75 µM | 64.8 µM | 28.7 µM | 5.48 µM | 46.5 µM | 16.7 µM | LC50 [2]: 61.2 µM; GI50 [8]: 7.2 µM; LC50 (concentration lethal to 50% of cells) [8]: 78.8 µM; TGI [8]: 36.3 µM; GI50 [9]: 12.3 µM; TGI [9]: 67 µM; CC50 [9]: 100 µM; growth at 10 µM (CCRF-CEM): 58.6%
11 | CN(C)c1ccc(C2CC(c3ccccc3)=NN2C2=NC(=O)/C(=C3\C(=O)Nc4ccccc43)S2)cc1 (stereo not given) | 7.42 µM | 25.2 µM | 49 µM | 0.27 µM | 34 µM | 5.26 µM | 57.3 µM | 20.2 µM | 6.37 µM | 43 µM | 18.8 µM | 6.9 µM | 29.4 µM | 43.9 µM | 1.22 µM | 47.1 µM | 39.7 µM | 1.11 µM | 41.6 µM | 3.24 µM | MTD [10]: > 400 mg/kg; LC50 [2]: 41.4 µM; GI50 [8]: 2.55 µM; LC50 (concentration lethal to 50% of cells) [8]: 40.4 µM; TGI [8]: 35.3 µM; GI50 [9]: 33.9 µM; TGI [9]: 45.6 µM; CC50 [9]: 94.8 µM; growth at 10 µM (U-251): -39.6%; Activity (Mus musculus): inactive
